This assay relates to normal Wistar rats. The experiment in a line: Pancreatic insulin content in normal rats treated with TGF-α and gastrin. The following applies: i.p. 0.8 μg/day each for 10 days, n=5, mean +/− SEM. The class given is in vivo, rat. The method, then: Animals. Mice, FVB and CD strain, were obtained from Taconic Farms, Inc., Germantown, N.Y. The TGF-α transgenic line MT-42 used, which expresses high levels of TGF-α from a metallothionein promoter, is described in Jhappan et al, Cell, 61:1137-1146 (1990). Normal Wistar and Zucker rats were allowed normal chow ad libidum with free access to water and were acclimatized for one week prior to initiation of each study. Freshly prepared streptozotocin at a dose of 80 mg/kg body weight was administered by I.V. five to seven days after induction of diabetes, the rats were randomly allocated into groups for subsequent treatment. Hormones, TGF-α and rat gastrin were reconstituted in sterile normal saline containing 0.1% BSA. […]
At the end of the study period (10 days), all animals were sacrificed and samples of pancreas taken as follows: five biopsy specimens (1-2 mg) of pancreatic tissue were taken from separate representative sites in each rat pancreas and immediately snap frozen in liquid nitrogen for analysis of insulin content. […] Pancreatic insulin content values were corrected according to protein content and finally expressed as μg insulin/mg pancreatic protein. All values calculated as mean +/− SEM and statistical significance evaluated using Student's 2-sample t-test.

Marks after values point to notes of the source that are not given here.

In the case of “TGF-α: recombinant Human TGF-α, an EGF receptor ligand, reconstituted in sterile saline containing 0.1% BSA”, the “Pancreatic Insulin Content” value was 30.4 +/− 7.4* μg insulin/mg protein.
